Assay results from patent publication US20240132521A1, “COMPOUNDS AND METHODS FOR MODULATING HER2” (Iambic Therapeutics, Inc., priority 2022, published 2024).
One block for each compound: values may come before it.

What was measured:
wtERBB2 (Her2 WT) = target: T1, wtERBB2 (Her2 WT) (Homo sapiens, UniProt P04626); assay: HotSpot radiometric kinase activity assay, wtERBB2; conditions: biochemical activity, 30 nM wtERBB2, 10 μM 33P-ATP, 2 hours
T1 construct: purchased Reaction Biology Kin-21-497
Description: (§1) The purpose of the wtERBB2, ERBB2-A775_G776insYVMA (ERBB2YVMA), wtEGFR biochemical assay was to evaluate the inhibition (% inhibition and IC50 values) of the small molecule inhibitors by using the “HotSpot” radiometric kinase activity assay. HotSpot assays monitor the production of kinase substrate by the radioactive gamma phosphate of adenosine triphosphate (33P-ATP) during biochemical reactions. HotSpot assays was performed in steps upon completion of the kinase reaction: deposition of a reaction mixture aliquot onto P81 ion exchange paper, extensive washing of the aforementioned P81 paper using phosphoric acid to remove unbound radiolabeled 33P-ATP from the P81 paper, and finally visualization and quantification of the dried P81 paper utilizing a phosphoimager. […] Typical reaction solutions (10 μL, final reaction volume) contained the following buffer conditions: 20 mM Hepes (pH 7.5), 10 mM MgCl2, 1 mM EGTA, 0.01% Brij35, 0.02 mg/mL BSA, 0.1 mM Na3VO4, 2 mM DTT, 1% DMSO. The assay was primed by preparing a fresh 0.2 mg/mL solution of pEY (Sigma Cat: P7244) substrate in the reaction buffer and supplementing that solution with […] of MnCl2 as substrate cofactor (Sigma Cat: M9522). The kinase of interest was then added to the solution at the appropriate concentration (30 nM wtERBB2 from, or 20 nM ERBB2YVMA, or 4 nM wtEGFR) and gently mixed prior to delivery of compound in 100% DMSO by acoustic dispensing (Beckman Echo550). Compound, Kinase, and substrate were allowed to incubate for 20 min at room temperature prior to the initiation of the reaction by addition of 33P-ATP (PerkinElmer Cat: NEG602, final conc 10 μM). […] IC50 determinations were made from a plot of kinase activity as a function of inhibitor concentration fit to the 4-parameter IC50 equation with the enzyme concentration held constant using GraphPad Prism (San Diego).

[1] = target: T2, ERBB2-A775_G776insYVMA (ERBB2YVMA) (Homo sapiens, UniProt P04626, INS775YVMA); assay: HotSpot radiometric kinase activity assay, ERBB2YVMA; conditions: biochemical activity, 20 nM ERBB2YVMA, 10 μM 33P-ATP, 2 hours, read-out: HER2 - YVMA IC50
T2 construct: purchased SignalChem E27-13BG
Description: as §1

wtEGFR = target: T3, wtEGFR (Homo sapiens, UniProt P00533); assay: HotSpot radiometric kinase activity assay, wtEGFR; conditions: biochemical activity, 4 nM wtEGFR, 10 μM 33P-ATP, 2 hours, read-out: EGFR WT IC50
T3 construct: purchased Invitrogen PR7295B
Description: as §1

BaF3_HER2WT cells = BaF3_HER2WT cells (Homo sapiens, UniProt P04626); assay: Cell growth inhibition assay (CellTiterGlo), BaF3_HER2WT; format: cell-based; conditions: 3-day treatment, CellTiterGlo, read-out: Cell growth inhibition activity, HER2 WT
BaF3_HER2WT cells, sequence (P04626 whole entry, change not shown): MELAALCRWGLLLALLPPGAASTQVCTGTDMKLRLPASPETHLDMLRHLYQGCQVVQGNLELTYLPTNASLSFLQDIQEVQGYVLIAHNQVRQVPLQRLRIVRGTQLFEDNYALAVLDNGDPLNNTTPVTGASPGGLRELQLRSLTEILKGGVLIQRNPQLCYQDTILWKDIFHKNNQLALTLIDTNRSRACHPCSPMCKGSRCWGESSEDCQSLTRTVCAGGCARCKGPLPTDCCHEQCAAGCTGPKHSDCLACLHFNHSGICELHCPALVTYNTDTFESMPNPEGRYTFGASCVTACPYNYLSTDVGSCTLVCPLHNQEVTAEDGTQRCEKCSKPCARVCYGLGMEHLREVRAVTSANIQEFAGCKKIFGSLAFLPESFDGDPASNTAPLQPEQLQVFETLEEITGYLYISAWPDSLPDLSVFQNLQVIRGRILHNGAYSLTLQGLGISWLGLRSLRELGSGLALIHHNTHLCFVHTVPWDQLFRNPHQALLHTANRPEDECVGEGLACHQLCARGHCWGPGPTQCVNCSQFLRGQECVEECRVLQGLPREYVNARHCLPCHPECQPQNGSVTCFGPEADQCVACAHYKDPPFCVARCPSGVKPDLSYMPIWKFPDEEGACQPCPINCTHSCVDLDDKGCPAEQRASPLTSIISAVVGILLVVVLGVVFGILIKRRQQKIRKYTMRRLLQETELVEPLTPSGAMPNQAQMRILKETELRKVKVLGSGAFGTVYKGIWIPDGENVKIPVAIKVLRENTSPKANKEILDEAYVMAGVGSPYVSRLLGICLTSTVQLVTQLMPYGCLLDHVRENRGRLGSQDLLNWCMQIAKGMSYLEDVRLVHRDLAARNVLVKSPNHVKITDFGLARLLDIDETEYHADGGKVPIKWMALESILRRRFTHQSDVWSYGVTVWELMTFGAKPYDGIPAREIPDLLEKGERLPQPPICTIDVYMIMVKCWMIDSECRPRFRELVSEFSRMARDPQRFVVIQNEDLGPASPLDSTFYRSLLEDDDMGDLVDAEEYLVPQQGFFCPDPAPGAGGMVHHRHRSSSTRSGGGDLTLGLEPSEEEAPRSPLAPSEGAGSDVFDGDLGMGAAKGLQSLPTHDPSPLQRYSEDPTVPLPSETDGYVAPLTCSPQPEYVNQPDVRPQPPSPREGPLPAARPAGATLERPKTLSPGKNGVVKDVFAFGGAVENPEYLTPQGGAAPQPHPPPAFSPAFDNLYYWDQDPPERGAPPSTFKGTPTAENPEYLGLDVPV

BaF3_HER2YVMA cells = BaF3_HER2YVMA cells (Homo sapiens, UniProt P04626, DUP772-775, cells depend on it); assay: Cell growth inhibition assay (CellTiterGlo), BaF3_HER2YVMA; format: cell-based; conditions: 3-day treatment, CellTiterGlo, read-out: Cell growth inhibition activity, HER2 - YVMA
BaF3_HER2YVMA cells, sequence (P04626 with tags, fused parts or gaps DUP772-775): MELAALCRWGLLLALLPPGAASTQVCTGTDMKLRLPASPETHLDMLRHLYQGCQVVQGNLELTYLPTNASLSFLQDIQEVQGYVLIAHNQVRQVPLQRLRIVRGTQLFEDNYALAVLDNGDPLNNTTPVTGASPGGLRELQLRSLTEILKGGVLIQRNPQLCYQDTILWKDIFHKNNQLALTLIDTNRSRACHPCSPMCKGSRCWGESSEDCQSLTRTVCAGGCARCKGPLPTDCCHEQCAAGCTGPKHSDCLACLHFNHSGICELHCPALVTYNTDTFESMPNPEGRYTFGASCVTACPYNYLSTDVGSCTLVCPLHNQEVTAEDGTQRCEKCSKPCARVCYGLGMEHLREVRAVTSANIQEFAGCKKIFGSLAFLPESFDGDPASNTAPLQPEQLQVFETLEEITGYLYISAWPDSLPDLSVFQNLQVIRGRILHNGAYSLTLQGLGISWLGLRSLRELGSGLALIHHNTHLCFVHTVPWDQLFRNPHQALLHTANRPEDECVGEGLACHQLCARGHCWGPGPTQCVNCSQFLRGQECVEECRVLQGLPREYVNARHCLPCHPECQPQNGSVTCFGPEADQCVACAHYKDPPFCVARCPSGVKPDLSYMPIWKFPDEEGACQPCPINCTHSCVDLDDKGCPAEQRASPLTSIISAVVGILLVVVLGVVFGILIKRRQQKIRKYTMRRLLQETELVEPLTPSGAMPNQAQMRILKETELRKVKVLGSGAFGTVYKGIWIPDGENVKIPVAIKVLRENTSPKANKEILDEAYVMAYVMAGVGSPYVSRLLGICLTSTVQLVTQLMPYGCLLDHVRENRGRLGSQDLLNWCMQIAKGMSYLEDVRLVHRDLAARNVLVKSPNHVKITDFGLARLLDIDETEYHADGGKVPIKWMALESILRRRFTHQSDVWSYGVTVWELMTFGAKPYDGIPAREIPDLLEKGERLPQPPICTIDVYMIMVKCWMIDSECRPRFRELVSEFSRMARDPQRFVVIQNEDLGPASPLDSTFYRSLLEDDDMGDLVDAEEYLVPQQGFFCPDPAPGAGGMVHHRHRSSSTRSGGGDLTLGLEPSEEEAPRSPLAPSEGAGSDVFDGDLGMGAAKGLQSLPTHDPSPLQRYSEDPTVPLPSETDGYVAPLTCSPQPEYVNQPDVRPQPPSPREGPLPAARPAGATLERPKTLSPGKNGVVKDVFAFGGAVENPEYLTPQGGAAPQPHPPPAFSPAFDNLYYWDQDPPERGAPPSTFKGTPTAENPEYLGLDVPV

BaF3_EGFRWT cells = BaF3_EGFRWT cells (Homo sapiens, UniProt P00533); assay: Cell growth inhibition assay (CellTiterGlo), BaF3_EGFRWT; format: cell-based; conditions: 3-day treatment, CellTiterGlo, read-out: Cell growth inhibition activity, EGFR WT
BaF3_EGFRWT cells, sequence (P00533 whole entry, change not shown): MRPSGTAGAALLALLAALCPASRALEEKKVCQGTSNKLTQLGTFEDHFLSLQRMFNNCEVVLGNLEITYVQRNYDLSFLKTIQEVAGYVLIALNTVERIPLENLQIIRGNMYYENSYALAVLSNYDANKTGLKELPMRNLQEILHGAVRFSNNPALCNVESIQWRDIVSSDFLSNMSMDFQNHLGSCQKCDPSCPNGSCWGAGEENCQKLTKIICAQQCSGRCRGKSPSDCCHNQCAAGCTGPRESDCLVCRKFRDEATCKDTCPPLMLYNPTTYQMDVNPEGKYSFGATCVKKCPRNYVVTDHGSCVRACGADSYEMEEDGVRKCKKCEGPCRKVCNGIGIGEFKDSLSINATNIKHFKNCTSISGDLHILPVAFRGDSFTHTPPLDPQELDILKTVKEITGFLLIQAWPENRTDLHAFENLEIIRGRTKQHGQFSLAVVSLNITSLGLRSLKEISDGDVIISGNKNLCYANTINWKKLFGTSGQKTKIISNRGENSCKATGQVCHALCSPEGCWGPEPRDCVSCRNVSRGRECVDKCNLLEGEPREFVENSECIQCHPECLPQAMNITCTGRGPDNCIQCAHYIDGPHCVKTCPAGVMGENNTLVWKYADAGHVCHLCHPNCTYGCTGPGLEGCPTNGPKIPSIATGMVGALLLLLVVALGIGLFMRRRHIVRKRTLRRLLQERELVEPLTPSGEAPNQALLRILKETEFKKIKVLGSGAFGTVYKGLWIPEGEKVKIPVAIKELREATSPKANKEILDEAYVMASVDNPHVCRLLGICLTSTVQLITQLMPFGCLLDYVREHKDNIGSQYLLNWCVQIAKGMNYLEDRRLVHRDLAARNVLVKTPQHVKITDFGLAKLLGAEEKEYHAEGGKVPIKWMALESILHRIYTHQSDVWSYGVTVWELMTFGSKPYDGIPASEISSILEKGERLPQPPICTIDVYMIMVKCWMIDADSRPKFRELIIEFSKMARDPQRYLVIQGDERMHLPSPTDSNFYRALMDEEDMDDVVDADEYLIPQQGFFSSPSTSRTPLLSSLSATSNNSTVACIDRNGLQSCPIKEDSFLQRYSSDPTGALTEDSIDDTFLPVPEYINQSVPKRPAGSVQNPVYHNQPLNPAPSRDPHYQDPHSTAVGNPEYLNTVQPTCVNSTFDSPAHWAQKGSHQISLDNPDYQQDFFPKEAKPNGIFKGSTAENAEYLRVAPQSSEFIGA

T1 sequence (P04626 23-1255): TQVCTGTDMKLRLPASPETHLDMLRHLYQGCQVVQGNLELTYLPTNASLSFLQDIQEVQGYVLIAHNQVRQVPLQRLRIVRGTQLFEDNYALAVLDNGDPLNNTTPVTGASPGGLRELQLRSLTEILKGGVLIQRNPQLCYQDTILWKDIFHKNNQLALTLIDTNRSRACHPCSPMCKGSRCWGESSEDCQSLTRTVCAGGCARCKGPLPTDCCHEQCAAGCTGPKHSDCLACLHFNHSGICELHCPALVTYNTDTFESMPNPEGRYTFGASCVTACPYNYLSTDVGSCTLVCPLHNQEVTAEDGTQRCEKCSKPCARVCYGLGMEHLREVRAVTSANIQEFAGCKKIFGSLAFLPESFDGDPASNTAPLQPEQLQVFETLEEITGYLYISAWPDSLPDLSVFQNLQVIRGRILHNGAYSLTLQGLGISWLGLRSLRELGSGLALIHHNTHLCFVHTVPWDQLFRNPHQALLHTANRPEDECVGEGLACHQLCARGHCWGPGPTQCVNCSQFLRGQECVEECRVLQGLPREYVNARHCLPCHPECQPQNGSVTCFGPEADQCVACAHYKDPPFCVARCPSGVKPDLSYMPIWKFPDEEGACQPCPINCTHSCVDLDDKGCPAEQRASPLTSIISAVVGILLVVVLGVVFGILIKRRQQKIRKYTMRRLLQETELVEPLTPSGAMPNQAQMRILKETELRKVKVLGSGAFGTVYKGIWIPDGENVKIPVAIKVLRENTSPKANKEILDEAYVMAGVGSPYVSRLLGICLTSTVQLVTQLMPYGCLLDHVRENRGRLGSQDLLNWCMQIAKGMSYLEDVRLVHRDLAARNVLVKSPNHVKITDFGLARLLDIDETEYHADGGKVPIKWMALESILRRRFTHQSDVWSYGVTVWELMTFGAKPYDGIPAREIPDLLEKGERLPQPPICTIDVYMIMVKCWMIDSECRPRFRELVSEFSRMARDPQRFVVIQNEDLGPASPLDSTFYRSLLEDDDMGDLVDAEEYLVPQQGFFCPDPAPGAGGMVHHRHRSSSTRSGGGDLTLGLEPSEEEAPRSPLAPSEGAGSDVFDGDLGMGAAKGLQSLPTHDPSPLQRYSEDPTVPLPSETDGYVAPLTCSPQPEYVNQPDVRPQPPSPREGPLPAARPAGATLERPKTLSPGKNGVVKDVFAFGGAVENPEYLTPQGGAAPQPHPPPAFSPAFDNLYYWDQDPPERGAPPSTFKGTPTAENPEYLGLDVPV

Structure (SMILES): Cc1cc(Nc2c(C#N)cnn3ccc(C4CN(C(=O)/C=C/CN(C)C)C4)c23)ccc1Oc1ccn2ncnc2c1 [Example 86, (E)-4-((4-([1,2,4]triazolo[1,5-a]pyridin-7-yloxy)-3-methylphenyl)amino)-5-(1-(4-(dimethylamino)-but-2-enoyl)azetidin-3-yl)pyrrolo[1,2-b]pyridazine-3-carbonitrile]
IC50 (wtERBB2 (Her2 WT)): 1500 to 5000 nM
IC50 [1]: 1500 to 5000 nM
IC50 (wtEGFR): 1500 to 5000 nM
GI50 (BaF3_HER2WT cells): 1500 to 5000 nM
GI50 (BaF3_HER2YVMA cells): > 5000 nM
GI50 (BaF3_EGFRWT cells): 1500 to 5000 nM

Structure (SMILES): Cc1cc(Nc2ncnn3cnc(C4CCN(C(=O)/C=C/CN(C)C)CC4)c23)ccc1Oc1ccn2ncnc2c1 [Example 88, (E)-1-(4-(4-((4-([1,2,4]triazolo[1,5-a]pyridin-7-yloxy)-3-methylphenyl)amino)imidazo[5,1-f][1,2,4]triazin-5-yl)piperidin-1-yl)-4-(dimethylamino)but-2-en-1-one]
IC50 (wtERBB2 (Her2 WT)): 200 to 500 nM
IC50 [1]: 500 to 1500 nM
IC50 (wtEGFR): 1500 to 5000 nM
GI50 (BaF3_HER2WT cells): 500 to 1500 nM
GI50 (BaF3_HER2YVMA cells): 1500 to 5000 nM
GI50 (BaF3_EGFRWT cells): 1500 to 5000 nM

Structure (SMILES): CN(C)C/C=C/C(=O)N1CC(c2ccn3ncnc(Nc4cnc(Oc5cccc(C(F)(F)F)c5)c(Cl)c4)c23)C1 [Example 90, (E)-1-(3-(4-((5-chloro-6-(3-(trifluoromethyl)phenoxy)pyridin-3-yl)amino)pyrrolo[2,1-f][1,2,4]triazin-5-yl)azetidin-1-yl)-4-(dimethylamino)but-2-en-1-one]
IC50 (wtERBB2 (Her2 WT)): 1500 to 5000 nM
IC50 [1]: 1500 to 5000 nM
IC50 (wtEGFR): 1500 to 5000 nM
GI50 (BaF3_HER2WT cells): 1500 to 5000 nM
GI50 (BaF3_HER2YVMA cells): 1500 to 5000 nM
GI50 (BaF3_EGFRWT cells): 1500 to 5000 nM

Structure (SMILES): Cc1cc(Nc2ncnn3ccc(-c4cnn(CCNC(=O)/C=C/CN(C)C)c4)c23)ccc1Oc1ccn2ncnc2c1 [Example 103, (E)-N-(2-(4-(4-((4-([1,2,4]triazolo[1,5-a]pyridin-7-yloxy)-3-methylphenyl)amino)pyrrolo[2,1-f][1,2,4]triazin-5-yl)-1H-pyrazol-1-yl)ethyl)-4-(dimethylamino)but-2-enamide]
IC50 [1]: 200 to 500 nM
IC50 (wtEGFR): 1500 to 5000 nM
GI50 (BaF3_HER2WT cells): 1500 to 5000 nM
GI50 (BaF3_HER2YVMA cells): 1500 to 5000 nM
GI50 (BaF3_EGFRWT cells): 1500 to 5000 nM

Structure (SMILES): Cc1cc(Nc2ncnn3ccc(C(=O)NCCCN(C)C)c23)ccc1Oc1ccn2ncnc2c1 [Example 178, 4-((4-([1,2,4]triazolo[1,5-a]pyridin-7-yloxy)-3-methylphenyl)amino)-N-(3-(dimethylamino)-propyl)pyrrolo[2,1-f][1,2,4]triazine-5-carboxamide]
IC50 [1]: < 200 nM
IC50 (wtEGFR): 500 to 1500 nM
GI50 (BaF3_HER2WT cells): 200 to 500 nM
GI50 (BaF3_HER2YVMA cells): 1500 to 5000 nM
GI50 (BaF3_EGFRWT cells): > 5000 nM

The remaining lines, values ahead:

IC50 (wtERBB2 (Her2 WT)): < 200 nM
IC50 [1]: < 200 nM
IC50 (wtEGFR): 1500 to 5000 nM
GI50 (BaF3_HER2WT cells): < 200 nM
GI50 (BaF3_HER2YVMA cells): < 200 nM
GI50 (BaF3_EGFRWT cells): 1500 to 5000 nM
Structure (SMILES): C=CC(=O)NC1CCN(C(=O)c2ccn3ncnc(Nc4ccc(Oc5ccn6ncnc6c5)c(C)c4)c23)C1 (centres unmarked) [Example 4, N-(1-(4-((4-([1,2,4]triazolo[1,5-a]pyridin-7-yloxy)-3-methylphenyl)amino)pyrrolo[2,1-f][1,2,4]triazine-5-carbonyl)pyrrolidin-3-yl)acrylamide]

IC50 [1]: < 200 nM
IC50 (wtEGFR): 1500 to 5000 nM
GI50 (BaF3_HER2WT cells): < 200 nM
GI50 (BaF3_HER2YVMA cells): 200 to 500 nM
GI50 (BaF3_EGFRWT cells): 1500 to 5000 nM
Structure (SMILES): C=CC(=O)N1CCC2(C1)CN(c1ccn3ncnc(Nc4ccc(Oc5ccn6ncnc6c5)c(C)c4)c13)C2 [Example 155, 1-(2-{4-[(3-methyl-4-{[1,2,4]triazolo[1,5-a]pyridin-7-yloxy}phenyl)amino]pyrrolo[2,1-f][1,2,4]triazin-5-yl}-2,6-diazaspiro[3.4]octan-6-yl)prop-2-en-1-one]

IC50 [1]: < 200 nM
IC50 (wtEGFR): 500 to 1500 nM
GI50 (BaF3_HER2WT cells): 200 to 500 nM
GI50 (BaF3_HER2YVMA cells): 1500 to 5000 nM
GI50 (BaF3_EGFRWT cells): 1500 to 5000 nM
Structure (SMILES): Cc1cc(Nc2ncnn3ccc(N4CC5(CCN(C(=O)/C=C/CN(C)C)C5)C4)c23)ccc1Oc1ccn2ncnc2c1 [Example 156, (2E)-4-(dimethylamino)-1-(2-{4-[(3-methyl-4-{[1,2,4]triazolo[1,5-a]pyridin-7-yloxy}phenyl)amino]pyrrolo[2,1-f][1,2,4]triazin-5-yl}-2,6-diazaspiro[3.4]octan-6-yl)but-2-en-1-one]
